Where two headings read alike, the source gives them in different places.
Columns and labels:
[1] = test system: human ovarian (SKOV-3) cancer cell line; experiment: MTT cytotoxicity assay, SKOV-3; format: cell-based; settings: Homo sapiens, SK-OV-3; MTT, 72 h, six concentrations, mean ± SD of three independent experiments
Method: (§1) To establish a SAR of the C-3 (R2) and C-23 (R1) of the AA derivatives, new compounds were subjected to MTT assays to evaluate their in-vitro antiproliferative activities against ovarian (SKOV-3) and colon (HCT-116) cancer cell lines, the IC50 values (the concentration that inhibits 50% of cell growth) of which are summarized in Table 1. Doxorubicin was used as the positive drug.
(§2) HCT116, SKOV-3, A549, A2780, HepG2, HL-60 and MCF-7 cells were incubated in DMEM with 10% heat-inactivated FBS in a humidified atmosphere of 5.0% CO2 at 37 °C. The in-vitro cytotoxicity of AA derivatives was determined using MTT assay. A 100-μL volume of culture medium at a concentration of 3 × 10^4 cell/mL was added to 96-well plate wells, which were maintained in a humidified atmosphere of 5.0% CO2 at 37 °C. After 24 h, 10 μL solution of AA derivatives and doxorubicin dissolved in DMSO and phophate buffered saline (PBS) and then diluted with DMEM under a concentration gradient, was added in the wells for final concentrations of 100, 10, 1, 0.1, 0.01, 0.001 μM of compounds in HCT116 and SKOV-3 cells and 125, 25, 5, 1, 0.2, 0.04 μM in A549, A2780, HepG2, HL-60 and MCF-7 cells. After 72 h incubation in a humidified atmosphere of 5.0% CO2 at 37 °C, 20 μl MTT solution (5 mg/mL) was added into each well and the cells were incubated. After 4 h, 100 μL HCl aqueous solution (0.01 M) with 10% SDS and 5% isobutanol was added into each well to dissolve the precipitated formazan and the absorbance was read at 570 nm on Thermo Scientific Varioskan Flash plate reader. All IC50 values were averaged from three independent experiments.

[2] = test system: human colon (HCT-116) cancer cell line; experiment: MTT cytotoxicity assay, HCT116; format: cell-based; settings: for IC50: Homo sapiens, HCT-116, MTT, 72 h, six concentrations, mean ± SD of three independent experiments
Method: as §1, §2

[3] = test system: A549 cells; parameters: method as in PMID 31057738; settings: literature value for AA; cited from earlier work
[4] = test system: A2780 cells; parameters: method as in PMID 30278332; settings: literature value for AA; cited from earlier work
[5] = test system: HepG2 cells; parameters: method as in PMID 31057738; settings: literature value for AA; cited from earlier work
[6] = test system: MCF-7 cells; parameters: method as in PMID 26974379; settings: literature value for AA; cited from earlier work
[7] = test system: human normal cell line (HUVEC); parameters: method as in PMID 25151580; settings: literature value for AA; cited from earlier work
[8] = test system: A549 cells; experiment: MTT cytotoxicity assay, A549; format: cell-based; settings: Homo sapiens, 72 h, mean ± SD of three independent experiments
Method: as §2

[9] = test system: A2780 cells; experiment: MTT cytotoxicity assay, A2780; format: cell-based; settings: Homo sapiens, 72 h, mean ± SD of three independent experiments
Method: as §2

[10] = test system: HepG2 cells; experiment: MTT cytotoxicity assay, HepG2; format: cell-based; settings: Homo sapiens, 72 h, mean ± SD of three independent experiments
Method: as §2

[11] = test system: HL-60 cells; experiment: MTT cytotoxicity assay, HL-60; format: cell-based; settings: Homo sapiens, 72 h, mean ± SD of three independent experiments
Method: as §2

[12] = test system: MCF-7 cells; experiment: MTT cytotoxicity assay, MCF-7; format: cell-based; settings: Homo sapiens, MCF7, 72 h, mean ± SD of three independent experiments
Method: as §2

[13] = test system: human normal cell line (HUVEC); experiment: CCK-8 cytotoxicity assay, human normal cell line HUVEC; format: cell-based; settings: for cytotoxic effect on HUVEC cell viability: CCK-8, concentrations of 125, 25, 5, 1, 0.2, 0.04 μM, 72 h; for IC50: HUVEC, CCK-8, 72 h, human normal cell line
Method: Additionally, the cytotoxic activities of compounds 10, 14j and 14k were evaluated against one human normal cell line (HUVEC) using CCK-8 assay (Table 3).
HUVEC cell lines were incubated in DMEM with 10% heat-inactivated FBS in a humidified atmosphere of 5.0% CO2 at 37 °C. The in-vitro cytotoxicity of AA derivatives was determined using CCK-8. A 100-μL volume of culture medium at a concentration of 3 × 10^4 cell/mL was added to 96-well plate wells, and these were maintained in a humidified atmosphere of 5.0% CO2 at 37 °C. After 24 h, 10 μL solution of AA derivatives dissolved in DMSO and PBS and then diluted with DMEM under a concentration gradient was added to the wells for final concentrations of 125, 25, 5, 1, 0.2, 0.04 μM. After 72 h incubation in a humidified atmosphere of 5.0% CO2 at 37 °C, 10 μl CCK-8 solution was added into each well and the cells were incubated for another 1 h, and the absorbance was read at 450 nm. All cell viability levels were averaged from three independent experiments.

[14] = test system: human ovarian cancer cells (A2780); parameters: method as in PMID 27416552, PMID 24268794; settings: read-out: EC50 against human ovarian cancer cells (A2780); cited from earlier work

SMILES	IC50 [1] [µM]	IC50 [2] [µM]	IC50 [8] [µM]	IC50 [9] [µM]	IC50 [10] [µM]	IC50 [11] [µM]	IC50 [12] [µM]	cytotoxic effect on HUVEC cell viability [13]	IC50 [13] [µM]	other results
C[C@H]1[C@H](C)CC[C@]2(C(=O)O)CC[C@]3(C)C(=CC[C@@H]4[C@@]5(C)C[C@@H](O)[C@H](O)[C@@](C)(CO)[C@@H]5CC[C@]43C)[C@H]12 [AA, 2α,3β,23-trihydroxyurs-12-ene-28-oic acid]	20.5 ± 4.06	24.6 ± 3.26								IC50 [3]: 41 ± 0.87 µM; IC50 [4]: 28.2 ± 0.3 µM; IC50 [5]: 35.4 ± 1.47 µM; IC50 [6]: 68.5 ± 2.5 µM; IC50 [7]: > 100 µM
COC(=O)[C@@]1(C)[C@@H]2CC[C@]3(C)[C@H](CC=C4[C@@H]5[C@@H](C)[C@H](C)CC[C@]5(C(=O)NCc5ccccc5)CC[C@]43C)[C@@]2(C)C[C@@H](OC)[C@@H]1OC(C)=O [Compound 10, α-Methoxy-3β-Acetoxy-Urs-12-Ene-28-Benzylamide-23-Methyl Ester]		1.08 ± 0.66	> 125	1.28 ± 0.32	1.43 ± 0.32	0.47 ± 0.08	3.99 ± 1.21	no cytotoxic effect	> 125	fold more active than AA against HCT116 cell line ([2]; relative to AA): 23 fold
CO[C@@H]1C[C@@]2(C)[C@@H](CC[C@]3(C)[C@@H]2CC=C2[C@@H]4[C@@H](C)[C@H](C)CC[C@]4(C(=O)NCc4ccccc4)CC[C@]23C)[C@](C)(C(=O)N2CCN(C)CC2)[C@H]1O [Compound 13k, α-Methoxy-3β-Hydroxy-Urs-12-Ene-28-Benzylamide-23-(4-Methyl-1-Piperazinyl)-Amide]			5.7 ± 0.58	13 ± 1.18	2.22 ± 0.68	10.7 ± 2.08	2.85 ± 0.25			
CCOC(=O)CCCNC(=O)[C@@]1(C)[C@@H]2CC[C@]3(C)[C@H](CC=C4[C@@H]5[C@@H](C)[C@H](C)CC[C@]5(C(=O)NCc5ccccc5)CC[C@]43C)[C@@]2(C)C[C@@H](OC)[C@@H]1OC(C)=O [Compound 14i, N-(2α-Methoxy-3β-Acetoxy-Urs-12-Ene-28-Benzylamide-23-Oyl)-4-Aminobutyric Ethyl Ester]	> 100	> 100								
CO[C@@H]1C[C@@]2(C)[C@@H](CC[C@]3(C)[C@@H]2CC=C2[C@@H]4[C@@H](C)[C@H](C)CC[C@]4(C(=O)NCc4ccccc4)CC[C@]23C)[C@](C)(C(=O)N(C)C)[C@H]1OC(C)=O [Compound 14j, α-Methoxy-3β-Acetoxy-Urs-12-Ene-28-Benzyl Amide-23-Dimethylamide]		1.83 ± 0.91	6.72 ± 0.64	2.24 ± 0.52	3.77 ± 1.22	3.01 ± 0.44	5.89 ± 1.33	no cytotoxic effect	> 125	
CO[C@@H]1C[C@@]2(C)[C@@H](CC[C@]3(C)[C@@H]2CC=C2[C@@H]4[C@@H](C)[C@H](C)CC[C@]4(C(=O)NCc4ccccc4)CC[C@]23C)[C@](C)(C(=O)N2CCN(C)CC2)[C@H]1OC(C)=O [Compound 14k, α-Methoxy-3β-Acetoxy-Urs-12-Ene-28-Benzylamide-23-(4-Methyl-1-Piperazinyl)-Amide]			4.04 ± 0.51	4.31 ± 0.58	2.84 ± 0.46	3.36 ± 0.66	1.78 ± 0.38	no cytotoxic effect	> 125	
COc1cccc2c1C(=O)c1c(O)c3c(c(O)c1C2=O)C[C@@](O)(C(=O)CO)C[C@@H]3O[C@H]1C[C@H](N)[C@H](O)[C@H](C)O1 [Doxorubicin, reference compound]	0.08 ± 0.01	0.03 ± 0.02								
CC(=O)O[C@@H]1C[C@]2(C)[C@H]3CC=C4[C@@H]5CC(C)(C)CC[C@]5(C(=O)NCc5ccccc5)CC[C@@]4(C)[C@]3(C)CC[C@H]2C(C)(C)[C@H]1OC(C)=O [EM2]										EC50 [14]: 0.5 µM

From paper PMC7464201, “Synthesis and Cytotoxic Activity of Novel C-23-Modified Asiatic Acid Derivatives” (Molecules, 2020)
